Patent US20130012493A1, “NOVEL SPIRO IMIDAZOLONE DERIVATIVES AS GLUCAGON RECEPTOR ANTAGONISTS, COMPOSITIONS, AND METHODS FOR THEIR USE” (priority 2010, published 2013)

Target: T1, recombinant human glucagon receptor (Homo sapiens, UniProt P47871)
T1 construct: expressed in transfected cells; host or cells: CHO (Chinese hamster ovary) cells
Test: Inhibition of glucagon-stimulated intracellular cAMP assay
Format: cell-based
Details: CHO cells expressing recombinant human glucagon receptor, stimulated with 300 pM glucagon
Description: Inhibition of Glucagon-Stimulated Intracellular cAMP Assay
Chinese hamster ovary (CHO) cells expressing the recombinant human glucagon receptor were harvested with the aid of non-enzymatic cell dissociation solution (GIBCO 13151-014). The cells were then pelleted and suspended in the stimulation buffer (1×HBSS, 5 mM Hepes, 0.1% BSA, pH7.4 in presence of complete protease inhibitor and phosphodiesterase inhibitor). The adenylate cyclase assay was conducted following the LANCE cAMP Kit (Perkin Elmer, AD0262) instructions. Briefly, cells were preincubated with anti-cAMP antibody in the stimulation buffer with a final concentration of 3% DMSO for 30 minutes and then stimulated with 300 pM glucagon for 45 minutes. The reaction was stopped by incubating with the detection buffer containing Europium chelate of the Eu-SA/Biotin-cAMP tracer for 20 hours. The fluorescence intensity emitted from the assay was measured at 665 nm using PheraStar instruments. […] Standard cAMP concentrations were conducted concurrently for conversion of fluorescence signal to cAMP level. Data was analyzed using GraphPad Prism. IC50 values were calculated using non-linear regression analysis assuming single site competition. […] Some of the compounds of the invention shown in the examples measured less than about 5 μM in this assay; other examples measured less than about 500 nM; others less than about 100 nM.

T1 sequence (P47871 26-477): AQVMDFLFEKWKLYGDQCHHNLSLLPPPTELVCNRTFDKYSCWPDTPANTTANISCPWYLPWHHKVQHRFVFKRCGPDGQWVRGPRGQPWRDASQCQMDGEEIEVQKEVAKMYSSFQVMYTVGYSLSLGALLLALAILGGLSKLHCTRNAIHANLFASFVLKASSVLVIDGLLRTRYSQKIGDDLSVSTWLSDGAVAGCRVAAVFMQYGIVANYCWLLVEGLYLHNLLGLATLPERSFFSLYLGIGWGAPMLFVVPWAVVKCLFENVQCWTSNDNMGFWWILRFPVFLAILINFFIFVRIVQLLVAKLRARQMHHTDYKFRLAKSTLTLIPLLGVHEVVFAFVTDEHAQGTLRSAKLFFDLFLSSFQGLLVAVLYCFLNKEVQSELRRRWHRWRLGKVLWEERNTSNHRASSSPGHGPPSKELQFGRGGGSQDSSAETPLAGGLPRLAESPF

| Structure (SMILES) | IC50 |
| --- | --- |
| CC(C)(C)CC[C@H](c1ccc(C(=O)NCc2nn[nH]n2)cc1)N1C(=O)C(C2CCCCC2)=NC12CCC(C(C)(C)C)CC2 (some centres unmarked) [Example 9.99] | 290 nM |
| CC[C@H](c1ccc(C(=O)NCCC(=O)O)cc1)N1C(=O)C(N2CCCCC2)=NC12CCC(C(C)(C)C)CC2 (some centres unmarked) [Example 10.4] | 209 nM |
